Columns and labels:
[1] = test system: ADR (human breast cancer, multi-drug resistant); experiment: Inhibition of cell proliferation (ATP luminescence or MTS assay), ADR; type: cell-based; conditions: 72 h, read-out: Cancer Cell Line: EC50 (nM) ADR
Protocol: (§1) The cancer cells lines tested against were: H226 (human lung cancer); N87 (human gastric cancer), OVCAR3 (human ovarian cancer), HCT116 (human colon cancer), HCT116NM46 (HCT116 subline with multi-drug resistance, including to paclitaxel), and ACR (human breast cancer, multi-drug resistant). Table II also includes comparative data against reference compounds (A)-(G) not according to this invention:
(§2) The ability of test compounds to inhibit cell proliferation was measured by either an ATP luminescence assay or an MTS cell proliferation assay. […] In some instances, both methods were used.
This is a general procedure for an ATP luminescence assay: Cells are seeded at 1×10^3 cells/well in 96-well plates for 3 h for ATP CellTiterGlo™ assays, respectively. Serial dilutions (1:3) of compounds are added to the wells. Plates are allowed to incubate for 72 h. […]
The following is a description of the MTS cell proliferation assay: CellTiter 96 Aqueous Non-Radioactive Cell proliferation Kit from Promega (Madison, Wis.) is used to determine the number of viable cells in cell proliferation assay. […] Absorbance at 490 nm is measured on an Envision reader (Perkin Elmer, Boston, Mass.). […] The plates are further incubated at 37° C. in 5% CO2 for three hours and the absorbance values at A490 were measured on an Envision reader.

[2] = test system: H226 (human lung cancer); experiment: Inhibition of cell proliferation (ATP luminescence or MTS assay), H226; type: cell-based; conditions: NCI-H226, 72 h, read-out: Cancer Cell Line: EC50 (nM) H226
Protocol: as §1, §2
(§3) This is a general procedure for an ATP luminescence assay: Cells are seeded at 1×10^3 cells/well in 96-well plates for 3 h for ATP CellTiterGlo™ assays, respectively. Serial dilutions (1:3) of compounds are added to the wells. Plates are allowed to incubate for 72 h. A CellTiterGlo™ cell viability kit from Promega is used to measure ATP content of cells treated with test compounds following manufacturer's instruction. A decrease in the ATP content is a measure of decrease in cellular viability. The EC50 value—the concentration at which an agent reduces cell viability by 50% of the maximum effect—is determined using PRISM™ software, version 5.0 (GraphPad Software, La Jolla, Calif., USA).
(§4) The following is a description of the MTS cell proliferation assay: CellTiter 96 Aqueous Non-Radioactive Cell proliferation Kit from Promega (Madison, Wis.) is used to determine the number of viable cells in cell proliferation assay. Tumor cells are plated at certain seeding densities in sterile 384-well black clear bottom Matrix plates at 40 μL per well and incubated overnight at 37° C. in 5% CO2 before assaying. On the next day, one set of cell plates (T0 plates) is used to determine time zero cell density, and 3-(4,5-dimethylthiazol-2-yl)-5-(3-carboxymethoxyphenyl)-2-(4-sulfophenyl)-2H-tetrazolium is added at 4 μL/well into T0 plates followed by incubation at 37° C. in 5% CO2 for three hours. This tetrazolium reagent is bioreduced by […] to form a formazan product which is soluble in aqueous solution. Absorbance at 490 nm is measured on an Envision reader (Perkin Elmer, Boston, Mass.). On the same day, compounds are added into remaining cell plates (T72 plates) and incubated at 37° C. in 5% CO2. After 72 hours, 4 μL MTS reagents are then added into those cell plates. The plates are further incubated at 37° C. in 5% CO2 for three hours and the absorbance values at A490 were measured on an Envision reader.

[3] = test system: OVCAR3 (human ovarian cancer); experiment: Inhibition of cell proliferation (ATP luminescence or MTS assay), OVCAR3; type: cell-based; conditions: OVCAR-3, 72 h, read-out: Cancer Cell Line: EC50 (nM) OVCAR3
Protocol: as §1, §2, §3, §4

[4] = test system: N87 (human gastric cancer); experiment: Inhibition of cell proliferation (ATP luminescence or MTS assay), N87; type: cell-based; conditions: 72 h, read-out: Cancer Cell Line: EC50 (nM) N87
Protocol: as §1, §2, §3, §4

[5] = test system: HCT116/VM46 (HCT116 subline with multi-drug resistance, including to paclitaxel); experiment: Inhibition of cell proliferation (ATP luminescence or MTS assay), HCT116/VM46; type: cell-based; conditions: Homo sapiens, HCT-116/VM46, multi-drug resistant HCT116 subline, 72 h, read-out: Cancer Cell Line: EC50 (nM) HCT116/VM46
Protocol: as §1, §2, §3, §4

[6] = test system: HCT116 (human colon cancer); experiment: Inhibition of cell proliferation (ATP luminescence or MTS assay), HCT116; type: cell-based; conditions: HCT-116, 72 h, read-out: Cancer Cell Line: EC50 (nM) HCT116
Protocol: as §1, §2, §3, §4

[7] = in vitro assays; Kaur et al. 2006; cited from earlier work
[8] = test system: cancer cells; conditions: Kaur et al. 2006; cited from earlier work
[9] = test system: various cancer cell lines; conditions: Kaur et al. 2006; cited from earlier work
[10] = test system: cancer cells; conditions: cancer cells versus normal cells; Kaur et al. 2006; cited from earlier work

Row | SMILES | EC50 [1] [nM] | EC50 [2] [nM] | EC50 [3] [nM] | EC50 [4] [nM] | EC50 [5] [nM] | EC50 [6] [nM] | antiangiogenic properties [7] | antiproliferative potency compared with paclitaxel and vinblastine [8] | activity in xenograft assays [9] | induction of apoptosis [10]
1 | CCCN(C(=O)[C@@H](NC(=O)[C@H]1CCCCN1C)[C@@H](C)CC)[C@H](C[C@@H](OC(=O)NC)c1nc(C(=O)N[C@H](CCC(=O)O)Cc2ccc(N)cc2)cs1)C(C)C [(E), reference compound] | 189 | 28 | – | – | – | – | – | – | – | –
2 | CCCN(C(=O)[C@@H](NC(=O)[C@H]1CCCCN1C)[C@@H](C)CC)[C@H](C[C@@H](OC(C)=O)c1nc(C(=O)N[C@@H](Cc2ccc(N)cc2)CC(C)(C)C(=O)O)cs1)C(C)C [(Ia-1)] | – | 0.089 | 0.016 to 0.04 | 0.03 to 0.2 | – | – | – | – | – | –
3 | CCCN(C(=O)[C@@H](NC(=O)[C@H]1CCCCN1C)[C@@H](C)CC)[C@H](C[C@@H](OC(=O)NC)c1nc(C(=O)N[C@@H](Cc2ccc(N)cc2)CC(C)(C)C(=O)O)cs1)C(C)C [(Ia-2), (S)-5-(4-aminophenyl)-4-(2-((5R,7R,10S)-10-((S)-sec-butyl)-7-isopropyl-12-((R)-1-methylpiperidin-2-yl)-3,9,12-trioxo-8-propyl-4-oxa-2,8,11-triazadodecan-5-yl)thiazole-4-carboxamido)-2,2-dimethylpentanoic acid] | 9.5 | 0.33 to 1.1 | 0.07 to 0.1 | 0.65 to 1 | 1.22 | 0.58 | – | – | – | –
4 | CCCN(C(=O)[C@@H](NC(=O)[C@H]1CCCCN1C)C(C)C)[C@H](C[C@@H](OC(C)=O)c1nc(C(=O)N[C@@H](Cc2ccc(N)cc2)CC(C)(C)C(=O)O)cs1)C(C)C [(Ia-3)] | – | 0.086 | 0.019 | 0.16 | 0.19 | 0.13 | – | – | – | –
5 | CCCN(C(=O)[C@@H](NC(=O)[C@H]1CCCCN1C)[C@@H](C)CC)[C@H](C[C@@H](OC(=O)NC)c1nc(C(=O)N[C@@H](Cc2ccc(N)cc2)CC2(C(=O)O)CC2)cs1)C(C)C [(Ib-1), 1-((S)-3-(4-aminophenyl)-2-(2-((5R,7R,10S)-10-((S)-sec-butyl)-7-isopropyl-12-((R)-1-methylpiperidin-2-yl)-3,9,12-trioxo-8-propyl-4-oxa-2,8,11-triazadodecan-5-yl)thiazole-4-carboxamido)propyl)cyclopropanecarboxylic acid] | – | 0.63 | 0.07 | 1.7 | – | – | – | – | – | –
6 | CCCN(C(=O)[C@@H](NC(=O)[C@H]1CCCCN1C)[C@@H](C)CC)[C@H](C[C@@H](OC(=O)NC)c1nc(C(=O)N[C@@H](Cc2ccc(N)cc2)CC2(C(=O)OC)CC2)cs1)C(C)C [(Ib-2), methyl 1-((S)-3-(4-aminophenyl)-2-(2-((5R,7R,10S)-10-((S)-sec-butyl)-7-isopropyl-12-((R)-1-methylpiperidin-2-yl)-3,9,12-trioxo-8-propyl-4-oxa-2,8,11-triazadodecan-5-yl)thiazole-4-carboxamido)propyl)cyclopropanecarboxylate] | – | 0.4 | 0.15 | 4.4 | – | – | – | – | – | –
7 | CCCN(C(=O)[C@@H](NC(=O)[C@H](NC)C(C)C)[C@@H](C)CC)[C@H](C[C@@H](OC(C)=O)c1nc(C(=O)N[C@@H](Cc2ccccc2)CC(C)(C)C(=O)O)cs1)C(C)C [(Ic-1), (S)-4-(2-((3R,6S,9R,11R)-6-((S)-sec-butyl)-3,9-diisopropyl-4,7,13-trioxo-8-propyl-12-oxa-2,5,8-triazatetradecan-11-yl)thiazole-4-carboxamido)-2,2-dimethyl-5-phenylpentanoic acid] | – | 0.038 | 0.012 | 0.2 | 0.51 | 0.064 | – | – | – | –
8 | CCCN(C(=O)[C@@H](NC(=O)[C@H](NC)C(C)C)[C@@H](C)CC)[C@H](C[C@@H](OC(=O)NC)c1nc(C(=O)N[C@@H](Cc2ccccc2)CC(C)(C)C(=O)O)cs1)C(C)C [(Ic-2)] | – | 0.31 | 0.04 | 0.37 | 7.5 | 0.26 | – | – | – | –
9 | CC[C@H](C)[C@H](NC(=O)[C@H]1CCCCN1C)C(=O)N(COC(=O)CC(C)C)[C@H](C[C@@H](OC(C)=O)c1nc(C(=O)N[C@@H](Cc2ccc(O)cc2)C[C@H](C)C(=O)O)cs1)C(C)C [tubulysin A] | – | – | – | – | – | – | significant potential antiangiogenic properties | more potent than paclitaxel and vinblastine | active in xenograft assays | induced apoptosis in cancer cells but not in normal cells

Reference: patent publication US10077287B2, “Tubulysin analogs and methods of making and use” (priority 2014, dated 2018)
